Test results taken from patent publication US20190041401A1, “Methods of Treating Subjects having Severe and/or Persistent Asthma” (National Jewish Health, priority 2015, published 2019).

Legend:
A549 cells [1] = experiment: Cytokine induction of IL-33R mRNA in A549 cells; type: cell-based, human; details: cytokine treatment for 72 hours
Protocol: (§1) FIGS. 18A-18J show the role of IL-33 in the persistence of asthma. FIG. 18A, A549 cells were cultured in medium alone or with IL-33 ([…]), IL-1b (2 ng/mL), IL-4 (10 ng/mL), IL-13 (20 ng/mL), IL-17 (10 ng/mL), TNF (2 ng/mL), IFN-γ (10 ng/mL), or IFN-γ plus TNF (same concentrations) for 72 hours, and then mRNA was analyzed for IL-33 normalized to glyceraldehyde-3-phosphate dehydrogenase (GAPDH). *P<0.05 and **P<0.01. There were 4 to 8 mice per group. FIGS. 18B-18E show the direct effect of IL-33 on airway hyperreactivity, lung ILCs, and autoinduction. […] IN, Intranasal. […] The change in RL with the 25-mg dose of methacholine is shown (n=5 per group). *P<0.05.
(§2) Immediately after flexiVent analysis, lung sections were collected in RIPA buffer (50 mmol/L Tris [pH 7.4], 150 mmol/L NaCl, 1 mmol/L EDTA, 1 mmol/L NaF, 1 mmol/L Na3VO4, and 0.1 mmol/L phenylmethylsulfonyl fluoride) containing protease and phosphatase inhibitors and homogenized. […] Cellular RNA was analyzed for mRNA for IL-33 and IL-33R. […] Cellular RNAwas analyzed for mRNA for IL-33. […] Cellular RNA was analyzed for mRNA for IL-33. In a fourth experiment cells were treated for 24 hours with IL-13 (20 ng/mL) and ATP, and the supernatant was collected and analyzed for IL-33 levels by means of ELISA, according to the manufacturer's instructions (R&D systems). […]

A549 cells [2] = experiment: IL-33 autoinduction in A549 cells after cytokine pretreatment; type: cell-based, human; details: pretreated 24 hours with cytokine, then 72 hours with IL-33 (20 ng/mL)
Protocol: as §1, §2

A549 cells [3] = experiment: IL-33 secretion by A549 cells (ELISA); type: cell-based, human; details: IL-13 20 ng/mL and ATP, overnight
Protocol: FIG. 27A, Effect of IL-13 on IL-33 secretion. A549 cells were treated overnight with medium or IL-13 (20 ng/mL) and ATP ([…]), and the released IL-33 was measured by using ELISA (n=6). *P=0.04. FIGS. 27B-27E, Direct effect of IL-33 on airway hyperreactivity and lung ILCs. C57Bl/6 mice were treated intranasally for 3 consecutive days with 400 ng per dose of IL-33. Outcome measures were evaluated 15 days after final exposure.
Immediately after flexiVent analysis, lung sections were collected in RIPA buffer (50 mmol/L Tris [pH 7.4], 150 mmol/L NaCl, 1 mmol/L EDTA, 1 mmol/L NaF, 1 mmol/L Na3VO4, and 0.1 mmol/L phenylmethylsulfonyl fluoride) containing protease and phosphatase inhibitors and homogenized. Lysed samples were subjected to 10% SDS-PAGE, transferred to a polyvinylidene difluoride membrane, and then immunoblotted with primary antibodies (IL-33 [R&D Systems], tubulin [H-235], and b-actin [Santa Cruz Biotechnology, Dallas, Tex]). […] Cellular RNA was analyzed for mRNA for IL-33 and IL-33R. […] Cellular RNAwas analyzed for mRNA for IL-33. […] Cellular RNA was analyzed for mRNA for IL-33. In a fourth experiment cells were treated for 24 hours with IL-13 (20 ng/mL) and ATP, and the supernatant was collected and analyzed for IL-33 levels by means of ELISA, according to the manufacturer's instructions (R&D systems).

[4] = tested on: human lung epithelial cell line A549; experiment: IL-33 mRNA induction in A549 cells (real-time PCR); type: cell-based; details: cytokine treatment for 72 hours, normalized to GAPDH
Protocol: as §1
Immediately after flexiVent analysis, lung sections were collected in RIPA buffer (50 mmol/L Tris [pH 7.4], 150 mmol/L NaCl, 1 mmol/L EDTA, 1 mmol/L NaF, 1 mmol/L Na3VO4, and 0.1 mmol/L phenylmethylsulfonyl fluoride) containing protease and phosphatase inhibitors and homogenized. Lysed samples were subjected to 10% SDS-PAGE, transferred to a polyvinylidene difluoride membrane, and then immunoblotted with primary antibodies (IL-33 [R&D Systems], tubulin [H-235], and b-actin [Santa Cruz Biotechnology, Dallas, Tex]). After washing, the membranes were incubated with a horseradish peroxidase-conjugated secondary antibody. After additional washing, the membranes were developed with ECL reagent, as previously described (Gorska et al. 2007). A549 cell culture A549 cells were cultured in RPMI in 10% FBS (HyClone; Thermo Scientific, Waltham, Mass.) and 1% penicillin/streptomycin (Gibco, Carlsbad, Calif.) and maintained at 378C in a humidified 5% CO2 incubator. All cytokines were purchased from PeproTech (Rocky Hill, N.J.). In one experiment cells were treated with medium, IL-1b (2 ng/mL), IL-4 (10 ng/mL), IL-13 (20 ng/mL), IL-17 (10 ng/mL), IL-33 (20 ng/mL), TNF (2 ng/mL), IFN-g (10 ng/mL), and TNF (2 ng/mL) plus IFN-g (10 ng/mL) for 72 hours. Cellular RNA was analyzed for mRNA for IL-33 and IL-33R. In a second experiment cells were pretreated for 24 hours with medium, IL-1b (2 ng/mL), IL-4 (10 ng/mL), IL-13 (20 ng/mL), IL-17 (10 ng/mL), TNF (2 ng/mL), or IFN-g (10 ng/mL) before stimulation for 72 hours with IL-33 (20 ng/mL). Cellular RNAwas analyzed for mRNA for IL-33. In a third experiment cells were treated for 24 hours with DRA (5 μg/mL dust mite, 15 μg/mL ragweed, and 5 μg/mL Aspergillus species). Cellular RNA was analyzed for mRNA for IL-33. In a fourth experiment cells were treated for 24 hours with IL-13 (20 ng/mL) and ATP, and the supernatant was collected and analyzed for IL-33 levels by means of ELISA, according to the manufacturer's instructions (R&D systems). […]

IL-13: cytokine purchased from PeproTech, 20 ng/mL on A549 cells
induction of IL-33R mRNA (A549 cells [1]): strongly induced IL-33R | IL-33 autoinduction after preincubation with cytokine (A549 cells [2]): synergistically enhanced IL-33 autoinduction | secretion of IL-33 (A549 cells [3]): stimulated secretion of IL-33 | induction of IL-33 mRNA [4]: most potent inducer of IL-33 mRNA
